Results: PubChem BioAssay (NCI)
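Following 48 hours of exposure in 96-well plates, responses at five concentrations were used to interpolate endpoints linearly. GI50 = concentration required for 50% inhibition of growth. The concentration for full growth arrest is given as TGI.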

Key:
Assay in all cases: inhibition of tumour cell growth, NCI panel, 48 h
[1] = tested on: EKVX NSCLC
[2] = tested on: NCI-H23 lung
[3] = tested on: RPMI-8226 leukemia
[4] = tested on: SF-295 CNS
[5] = tested on: SK-MEL-5 melanoma
[6] = tested on: SW-620 colon
[7] = tested on: UO-31 renal
[8] = tested on: HOP-62 NSCLC
[9] = tested on: SN12C renal

COC(=O)C(C(=O)C(N)=O)c1csc(-n2nc(-c3ccccc3)cc2-c2ccccc2)n1 (stereo not given)
TGI [1]: > 31.6 µM | TGI [2]: > 100 µM | TGI [3]: > 31.6 µM | TGI [4]: > 100 µM | TGI [5]: > 31.6 µM | TGI [6]: 6.02 µM | TGI [7]: 28.9 µM

[CH3][Sn]1([CH3])[O]CC(COc2cc(Cl)c(Cl)cc2Cl)[O]1 (stereo not given)
GI50 [1]: 55.9 µM | TGI [1]: > 100 µM | GI50 [8]: > 100 µM | TGI [8]: > 100 µM | GI50 [2]: > 100 µM | TGI [2]: > 100 µM | GI50 [3]: > 100 µM | TGI [3]: > 100 µM | GI50 [4]: 38.8 µM | TGI [4]: > 100 µM | GI50 [5]: 49.8 µM | TGI [5]: > 100 µM | GI50 [9]: 89.1 µM | TGI [9]: > 100 µM | GI50 [6]: 51 µM | TGI [6]: > 100 µM | GI50 [7]: 71 µM | TGI [7]: > 100 µM

O=C(/C=C/c1ccccc1)CCC1C(=O)NC(=S)NC1=O
TGI [2]: > 100 µM | TGI [4]: > 100 µM | TGI [5]: > 100 µM | TGI [9]: > 100 µM | TGI [6]: > 100 µM | TGI [7]: > 100 µM

CC(=O)NC(CCCN(Cc1ccccc1)C(=O)N(C)N=O)C(=O)NCc1ccccc1 (stereo not given)
TGI [1]: > 100 µM | TGI [8]: > 100 µM | TGI [2]: > 100 µM | TGI [3]: > 100 µM | TGI [4]: > 100 µM | TGI [5]: > 100 µM | TGI [9]: > 100 µM | TGI [6]: > 100 µM | TGI [7]: > 100 µM

Cc1ccc2nc(NC(=O)C(=O)CC(=O)c3cccc4ccccc34)sc2c1
TGI [1]: > 100 µM | TGI [8]: 56.9 µM | TGI [2]: > 100 µM | TGI [3]: > 100 µM | TGI [4]: 48.4 µM | TGI [5]: 55.4 µM | TGI [9]: > 100 µM | TGI [6]: > 100 µM | TGI [7]: > 100 µM

Cc1noc(/N=C2\C=C(Nc3onc(C)c3C)C(=O)c3ccccc32)c1C
TGI [1]: > 100 µM | TGI [8]: > 100 µM | TGI [2]: > 100 µM | TGI [3]: > 100 µM | TGI [4]: > 100 µM | TGI [5]: > 100 µM | TGI [9]: > 100 µM | TGI [6]: > 100 µM | TGI [7]: > 100 µM

CC(=O)OC(=O)O/C=C\CCl
TGI [8]: > 100 µM | TGI [3]: > 100 µM | TGI [5]: > 100 µM | TGI [9]: > 100 µM | TGI [6]: > 100 µM | TGI [7]: > 100 µM

CN=C(N)N/N=C(\C)c1ccc2c(c1)Cc1ccccc1-2
GI50 [1]: 2.62 µM | TGI [1]: 13.9 µM | GI50 [8]: 1.66 µM | TGI [8]: 3.2 µM | GI50 [2]: 2.84 µM | TGI [2]: 12.3 µM | GI50 [3]: 1.72 µM | TGI [3]: 4.16 µM | GI50 [4]: 1.9 µM | TGI [4]: 4.32 µM | GI50 [5]: 1.61 µM | TGI [5]: 2.95 µM | GI50 [9]: 1.92 µM | TGI [9]: 5.38 µM | GI50 [6]: 1.43 µM | TGI [6]: 3.29 µM | GI50 [7]: 1.43 µM | TGI [7]: 2.89 µM

COC(=O)C(=O)C(C(=O)C(=O)Nc1cc(Cl)c(Cl)cc1Cl)c1nc2ccc([N+](=O)[O-])cc2[nH]c1=O (stereo not given)
TGI [1]: > 100 µM | TGI [2]: > 100 µM | TGI [3]: > 100 µM | TGI [4]: > 100 µM | TGI [5]: > 100 µM | TGI [9]: > 100 µM | TGI [6]: > 100 µM | TGI [7]: > 100 µM

CCc1cc(Cc2ccc(C)c(NC(=O)C(=O)C3C(=O)NC(=O)NC3=O)c2CC)cc(C)c1NC(=O)C(=O)C1C(=O)NC(=O)NC1=O
TGI [1]: > 100 µM | TGI [8]: > 100 µM | TGI [2]: > 100 µM | TGI [3]: > 100 µM | TGI [5]: > 100 µM | TGI [6]: > 100 µM | TGI [7]: > 100 µM

CC1=CC(=O)NP(=O)(C23CC4CC(CC(C4)C2)C3)N1 (stereo not given)
TGI [1]: > 100 µM | TGI [8]: > 100 µM | TGI [2]: > 100 µM | TGI [3]: > 100 µM | TGI [4]: > 100 µM | TGI [5]: > 100 µM | TGI [9]: > 100 µM | TGI [6]: > 100 µM | TGI [7]: > 100 µM

O=CCCCC(Sc1ccccc1)Sc1ccccc1
TGI [1]: > 100 µM | TGI [8]: > 100 µM | TGI [2]: 27.3 µM | TGI [3]: 48.6 µM | TGI [4]: 40.7 µM | TGI [5]: 30.8 µM | TGI [9]: 56.7 µM | TGI [6]: 23.6 µM | TGI [7]: 66.8 µM

COc1ccc2c(c1)c1c3n2CCNN=C3CCC1
TGI [1]: > 100 µM | TGI [8]: > 100 µM | TGI [2]: > 100 µM | TGI [3]: > 100 µM | TGI [4]: > 100 µM | TGI [5]: > 100 µM | TGI [9]: > 100 µM | TGI [6]: > 100 µM | TGI [7]: > 100 µM

CCCCCCCCCCCCCCCCCC(=O)NCC(COP(=O)(O)O)OCC (stereo not given)
TGI [1]: > 100 µM | TGI [8]: 54.5 µM | TGI [2]: 30.1 µM | TGI [3]: > 100 µM | TGI [4]: 37.5 µM | TGI [5]: > 100 µM | TGI [9]: 46.4 µM | TGI [6]: > 100 µM | TGI [7]: 83.2 µM

C/C(CC(=O)Nc1cccc([N+](=O)[O-])c1)=N\NC(=O)CC#N
TGI [1]: > 100 µM | TGI [8]: > 100 µM | TGI [2]: > 100 µM | TGI [3]: > 100 µM | TGI [4]: > 100 µM | TGI [5]: > 100 µM | TGI [6]: > 100 µM | TGI [7]: > 100 µM

CC(=O)c1c2c(cc3c1CC1(C3)Cc3cc4c(c(C(=O)O)c3C1)CCC4)CCC2 (stereo not given)
TGI [8]: > 100 µM | TGI [2]: 66.8 µM | TGI [4]: > 100 µM | TGI [5]: > 100 µM | TGI [9]: > 100 µM | TGI [6]: > 100 µM | TGI [7]: 72.7 µM

N#CC(C(=O)CCCC(=O)Nc1ccc(Cl)cc1Cl)c1ccc(Cl)cc1 (stereo not given)
TGI [8]: > 100 µM | TGI [2]: > 100 µM | TGI [3]: > 100 µM | TGI [4]: > 100 µM | TGI [9]: > 100 µM | TGI [6]: > 100 µM | TGI [7]: > 100 µM

S=c1c2ccccc2c(=S)n2n1CC=CC2
TGI [1]: > 100 µM | TGI [2]: > 100 µM | TGI [3]: > 100 µM | TGI [4]: > 100 µM | TGI [5]: > 100 µM | TGI [9]: > 100 µM | TGI [6]: > 100 µM | TGI [7]: > 100 µM

c1ccc(-c2ccnc3c2ccc2c(-c4ccccc4)ccnc23)cc1
TGI [1]: 5.53 µM | TGI [8]: 7.86 µM | TGI [2]: 14.1 µM | TGI [5]: 11.2 µM | TGI [9]: 6.54 µM | TGI [6]: 15 µM | TGI [7]: 4.91 µM
